{"source": "patent US11644474B2", "about": "“Use of macimorelin in assessing growth hormone deficiency in children” (Æterna Zentaris GmbH, priority 2020, dated 2023)", "type_in_all_cases": "in vivo, human (paediatric subjects with suspected GHD)", "key": {"[1]": {"assay": "Safety and tolerability of single oral macimorelin (adverse events, questionnaires, safety laboratory, ECG)", "conditions": "all three dosing cohorts, 0.25-1 mg/kg single oral dose; for safety and tolerability: questionnaires, safety laboratory, ECG", "protocol": "(§1) This was an open-label, group comparison, dose escalation trial to investigate the safety, tolerability, pharmacokinetics and pharmacodynamics of single-dose 0.25, 0.5, and 1 mg/kg oral macimorelin acetate in paediatric subjects with suspected GHD. The macimorelin GHST was administered between two standard GHST, conducted as per local clinical practice, with a recovery period of 7-28 days between tests. For the purposes of obtaining a detailed macimorelin PK profile in children, blood samples were collected pre-dose (±15 min) and 15, 30, 45, 60, 90, 120, and 360 minutes after macimorelin acetate intake."}, "[2]": {"system": "GH secretion", "assay": "Macimorelin growth hormone stimulation test (GHST): serum GH after oral macimorelin (PD)", "conditions": "for Peak GH after Macimorelin GHST: individual patients, serum", "protocol": "as §1\n(§2) The main features of Study P01 are summarized as follows: • Sequential cohorts of trial participants received macimorelin at ascending single oral doses: 0.25 mg/kg body weight in Cohort 1 (C1), 0.5 mg/kg body weight in Cohort 2 (C2), and 1 mg/kg body weight in Cohort 3 (C3). • For determination of macimorelin PK/PD: blood sampling at pre-dose, then 15, 30, 45, 60, 90, 120, and 360 minutes after the administration of macimorelin. • Two standard GHSTs (sGHSTs) had to be performed in a patient according to local practice. The related sGHST agents were considered as ‘background’ and not as IMPs. (Accepted test agents: insulin (insulin tolerance test or ITT), arginine, arginine/growth hormone releasing hormone (GHRH), clonidine, glucagon, L-dopa). Results\nGH serum concentration: the analysis of serum samples for GH concentration was carried out at a central laboratory by a validated immunochemiluminometric assay (IDS-iSYS Human Growth Hormone (hGH), Immunodiagnostic Systems Ltd [UK]) (Manolopoulou et al., 2012). This assay is standardized to the recombinant growth hormone calibration standard WHO 98/574, and complies with recommendations on assay standardization as outlined by Clemmons (Clemmons, 2011).\nThe analytical laboratory applied for GH was: Central Laboratory Synevo Łódź, Krakusa Str. 28, 93-515 Łódź. Poland. The lower limit of quantification was <0.05 ng/mL."}, "[3]": {"assay": "Macimorelin plasma pharmacokinetics after single oral dose (Study AEZS-130-P01)", "conditions": "for half-life: read-out: mean elimination half-life (converted); for Cmax: n=8 children; for AUC(0-t): read-out: mean AUC0-6 of macimorelin", "protocol": "as §1, §2\nMacimorelin plasma concentrations: the analysis of plasma samples for macimorelin concentration was carried out at a central laboratory, Prolytic GmbH, Germany, using a validated liquid chromatography-mass spectrometry (LCMS/MS) method with a detection limit of 0.2 ng/mL (Franz, 2005).\nPreliminary pharmacokinetics (PK) were determined by: time of maximum measured concentration (tmax) and maximum concentration (Cmax) of macimorelin plasma concentrations in the sampling period."}, "[4]": {"conditions": "human, C1, 0.25 mg/kg single oral dose, plasma"}, "[5]": {"conditions": "human, C2, 0.5 mg/kg single oral dose, plasma"}, "[6]": {"conditions": "human, C3, 1 mg/kg single oral dose, plasma"}}, "note": "Several values for one entry are separate records, joined by “and”; a condition that tells them apart may be missing. Equal entries are not always repeated. Entries after “also recorded” stand apart in the source; their conditions may differ. Where two headings read alike, the source gives them in different places.", "data": [{"compound": "CC(C)(N)C(=O)N[C@H](Cc1c[nH]c2ccccc12)C(=O)N[C@H](Cc1c[nH]c2ccccc12)NC=O", "note": "[macimorelin]", "values": [{"measurement": "adverse events related to macimorelin", "setting": "[1]; 24 children", "value": "none were considered related to the macimorelin test; also recorded: No adverse event was reported in relation to macimorelin"}, {"measurement": "safety and tolerability", "setting": "[1]", "value": "excellent safety and tolerability"}, {"measurement": "safety and tolerability", "setting": "[1]; listed as Macimorelin acetate", "value": "safe and well tolerated in all dosing cohorts"}, {"measurement": "time within which peak GH levels were observed", "setting": "[2]; C1, 0.25 mg/kg oral", "value": "0.5 to 1", "unit": "h"}, {"measurement": "mean Tmax of peak GH", "setting": "[2]; C1, 0.25 mg/kg oral (SD 11.3)", "value": 0.875, "unit": "h"}, {"measurement": "Peak GH after Macimorelin GHST", "setting": "[2]; C1, 0.25 mg/kg oral", "value": "8.61 ng/mL and 0.51 ng/mL and 21.73 ng/mL and 5.22 ng/mL and 10.03 ng/mL and 14.07 ng/mL and 9.78 ng/mL and 8.38 ng/mL"}, {"measurement": "time within which peak GH levels were observed", "setting": "[2]; C2, 0.5 mg/kg oral", "value": "0.25 to 1", "unit": "h"}, {"measurement": "mean Tmax of peak GH", "setting": "[2]; C2, 0.5 mg/kg oral (SD 13.9)", "value": 0.625, "unit": "h"}, {"measurement": "Peak GH after Macimorelin GHST", "setting": "[2]; C2, 0.5 mg/kg oral", "value": "5.06 ng/mL and 20.73 ng/mL and 7.41 ng/mL and 10.43 ng/mL and 21.36 ng/mL and 16.41 ng/mL and 9.67 ng/mL and 27.42 ng/mL"}, {"measurement": "time within which peak GH levels were observed", "setting": "[2]; C3, 1 mg/kg oral", "value": "0.5 to 0.75", "unit": "h"}, {"measurement": "mean Tmax of peak GH", "setting": "[2]; C3, 1 mg/kg oral (SD 8.0)", "value": 0.625, "unit": "h"}, {"measurement": "stimulation of GH secretion", "setting": "[2]; C3, 1 mg/kg oral, 8 patients", "value": "stimulated evidently in all 8 patients; also recorded: evident stimulation of GH secretion in all 8 patients"}, {"measurement": "Peak GH after Macimorelin GHST", "setting": "[2]; C3, 1 mg/kg oral", "value": "17.13 ng/mL and 14.46 ng/mL and 59.73 ng/mL and 49.16 ng/mL and 25.07 ng/mL and 14.63 ng/mL and 11.35 ng/mL and 44.73 ng/mL"}, {"measurement": "mean Tmax of GH release", "setting": "[2]; all cohorts C1-C3", "value": "0.5 to 1", "unit": "h"}, {"measurement": "time of maximum GH release after macimorelin administration", "setting": "[2]; all cohorts C1-C3", "value": "0.25 to 2", "unit": "h"}, {"measurement": "time at which peak GH levels were mainly observed following macimorelin intake", "setting": "[2]; all three cohorts", "value": "30 to 60", "unit": "min"}, {"measurement": "change of macimorelin AUC with dose", "setting": "[3]; 0.25, 0.5, 1 mg/kg oral", "value": "increased with dose; also recorded: dose-dependent increase; also recorded: increases with the macimorelin dose"}, {"measurement": "change of macimorelin Cmax with dose", "setting": "[3]; 0.25, 0.5, 1 mg/kg oral", "value": "dose-dependent increase; also recorded: dose-proportional increase"}, {"measurement": "change of macimorelin plasma concentrations with dose", "setting": "[3]; 0.25, 0.5, 1 mg/kg oral, FIG. 1", "value": "dose-dependent increase with high inter-individual variability"}, {"measurement": "time at which maximum plasma concentrations for macimorelin were mainly observed", "setting": "[3]; all cohorts, 0.25-1 mg/kg oral", "value": "30 to 45", "unit": "min"}, {"measurement": "half-life", "setting": "[3]; human, plasma, C1, 0.25 mg/kg single oral dose", "value": 1.22, "unit": "h"}, {"measurement": "half-life", "setting": "[3]; human, plasma, C2, 0.5 mg/kg single oral dose", "value": 1.61, "unit": "h"}, {"measurement": "half-life", "setting": "[3]; human, plasma, C3, 1 mg/kg single oral dose", "value": 1.71, "unit": "h"}, {"measurement": "Tmax", "setting": "[3]; human, plasma, all three groups C1-C3, 0.25-1 mg/kg oral", "value": "0.5 to 0.75", "unit": "h"}, {"measurement": "Cmax", "setting": "[3]; [4]", "value": 3.46, "unit": "ng/mL"}, {"measurement": "AUC(0-t)", "setting": "[3]; [4]", "value": 6.69, "unit": "ng·h/mL"}, {"measurement": "Cmax", "setting": "[3]; [5]", "value": 8.13, "unit": "ng/mL"}, {"measurement": "AUC(0-t)", "setting": "[3]; [5]", "value": 18, "unit": "ng·h/mL"}, {"measurement": "Cmax", "setting": "[3]; [6]", "value": 12.9, "unit": "ng/mL"}, {"measurement": "AUC(0-t)", "setting": "[3]; [6]", "value": 30.9, "unit": "ng·h/mL"}]}]}
